Consider two compounds from patent US20250092014A1, “COMPOUNDS AND METHODS OF ACTIVATING LIPOPROTEIN LIPASE” (Metrea Biosciences, Inc., priority 2021, published 2025).

In general, EC50 refers to the concentration that produces a half-maximal response. Low values mean an effect from little substance, high ones a need for much substance.

Experiment [1] addresses T1, LPL (native bovine milk protein) inactivated by ANGPTL4 (Bos taurus, UniProt P11151).
T1 construct: from tissue; host or cells: bovine milk (LPL); E. coli (GST-ANGPTL4)
T1 sequence (P11151 29-478): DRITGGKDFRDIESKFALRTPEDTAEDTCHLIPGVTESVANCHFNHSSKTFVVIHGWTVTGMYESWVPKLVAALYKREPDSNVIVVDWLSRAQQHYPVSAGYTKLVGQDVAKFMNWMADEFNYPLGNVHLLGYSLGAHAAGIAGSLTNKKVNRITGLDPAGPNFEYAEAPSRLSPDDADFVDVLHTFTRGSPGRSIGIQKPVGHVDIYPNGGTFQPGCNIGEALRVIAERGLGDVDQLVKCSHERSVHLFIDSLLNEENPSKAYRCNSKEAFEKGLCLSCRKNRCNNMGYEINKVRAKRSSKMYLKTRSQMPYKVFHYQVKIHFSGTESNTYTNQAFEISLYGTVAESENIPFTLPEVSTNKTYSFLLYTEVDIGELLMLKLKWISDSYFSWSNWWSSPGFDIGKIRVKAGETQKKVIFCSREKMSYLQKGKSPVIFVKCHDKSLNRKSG
Nature of the experiment: LPL ANGPTL4 protection assay (LPL fluorescence assay, resorufin butyrate substrate). Format: biochemical. Conditions: LPL activation activity, LPL 2.5 nM, ANGPTL4 20 nM. The procedure:
LPL is inactivated by angiopoietin-like 4 (ANGPTL4). Compounds of the present disclosure were for activity using the following protection assay. Briefly, the assay was performed in a black opaque 96-well microtiter plate with final volume of 100 μL using a buffer consisting of 50 mM HEPES (pH 7.2), 150 mM NaCl and 0.03% Triton X-100. Compounds were prepared as 10 mM stocks in DMSO, with subsequent serial dilutions performed in DMSO. Two microliters of test compounds were added to the microtiter plate, followed by 49-PL of LPL (native bovine milk protein affinity purified using heparin-affinity chromatography) in assay buffer. The plate contents were mixed using an orbital shaker and allowed to incubate for 5 minutes at room temperature. The enzymatic assay was initiated by the addition of a mixture of 49 μL of 50 μM resorufin butyrate (Santa Cruz #sc-208302; prepared from a 10 mM DMSO stock) and ANGPTL4 (N-terminal GST construct consisting of residues 26-164 expressed in E. coli) in assay buffer. The final concentrations of LPL and ANGPTL4 were 2.5 nM and 20 nM, respectively. The assay was allowed to proceed at 30° C. for 25 minutes with kinetic monitoring (Ex560/Em585) followed by an endpoint reading which was used for analysis.
Data was analyzed in Graphpad Prism (version 6.0, GraphPad Software, Inc., San Diego, CA) using a variable slope four parameter fit of the equation:
Y=Bottom+(Top-Bottom)/(1+10^((Log EC50−X)*HillSlope)),
where X is the concentration of test compound, Y corresponds to the amount of product expressed in relative fluorescence units, and Top and Bottom refer to the plateaus of the curve. Percent activation (protection) of test compound was calculated relative to zero effect wells (ZEW; LPL, ANGPTL4 and substrate) and maximum effect wells (MEW; LPL plus substrate): ((test well−ZEW)/(MEW−ZEW))*100.

Another experiment has as its system C57BL/6 mice. Nature of the experiment: Oral fat tolerance test (postprandial triglyceridaemia after olive oil bolus). The format is in vivo. The conditions noted are these: overnight-fasted C57BL/6 mice, compound IP 1 h before 10 mL/kg olive oil, bled at 1, 2 and 3.5 h. The procedure:
To examine to effects of test compounds on postprandial triglycerdemia, 5-7 week old C57BL/6 mice were fasted overnight (18 hours) on non-nutritive bedding (Alpha-Dri). Following the overnight fast, the mice are bled via retro-orbital sinus (25 μL) using microcapillaries (t-1 hr sample). The LPL activator test compound was then administered intraperitoneally (IP) in a dose volume of 10 ml/kg. One hour later the mice were bled for the t=0 timepoint. The mice were then immediately dosed with a 10 mL/kg oral bolus of olive oil. The mice were subsequently bled at 1-, 2-, and 3.5-hours post-olive oil administration.
Whole blood samples were collected into tubes containing 0.125% EDTA solution in saline. Diluted plasma samples were analyzed for triglyceride levels using Infinity Triglyceride reagent (Thermo) on a microtiter plate. Briefly, 10 μL of diluted sample was added the plate. 200 μL of the reagent was added and the plate was incubated for 10 minutes at 37° C. The plate was then read at 550 nm on a Molecular Devices M5 Spectrophotometer (San Jose, CA). The concentration of triglycerides in the sample was determined using a standard curve made using a dilution of triglyceride standard (Sigma-Aldrich, St. Louis, MO) using the Softmax software from Molecular Devices. All graphing and subsequent area under-the-curve and statistical analysis (Student's t Test) is performed using GraphPad Prism (version 8.0, GraphPad Software, Inc., San Diego, CA).

For the compound `Cc1ccc(NC(=O)c2cc(NCc3ccc(-c4nnn[nH]4)cc3)ccc2N2CCCCC2)cc1` [Compound 175, 5-((4-(1H-tetrazol-5-yl)benzyl)amino)-2-(piperidin-1-yl)-N-(p-tolyl)benzamide], in experiment [1], the EC50 was 13.4 µM. In the experiment with C57BL/6 mice, the “hypertriglyceridemia response to oral olive oil gavage (plasma triglycerides)” value is recorded as “blunts hypertriglyceridemia response in a dose-dependent fashion”.
Taken in the same sequence, the figures for `Cc1ccc(NC(=O)c2cc(NC(=O)c3ccccc3C(=O)O)ccc2NC2CCCC2)cc1Cl` [Compound 176, 2-((3-((3-chloro-4-methylphenyl)carbamoyl)-4-(cyclopentylamino)phenyl)carbamoyl)benzoic acid] were 5.74 µM and “blunts hypertriglyceridemia response in a dose-dependent fashion”.
